Assay results from patent publication US8258116B2, “Combination therapy for the treatment of HCV infection” (Vertex Pharmaceuticals Incorporated, priority 2007, dated 2012).
Like-named read-outs stand apart in the source and are kept apart here.

Key:
[1] = tested on: HCV NS3 protease variant replicon A156T; details: A156T replicon versus wild-type (Lin et al., 2005); cited from earlier work
[2] = tested on: HCV NS3 protease variant replicon R155T; assay: microbe, parasite or virus in culture; assay type: cell-based; details: for Fold Change: R155T, ratio of mutant IC50 to Wild type IC50 for the same inhibitor
Protocol: (§1) Huh-7 cells were propagated in Dulbecco's modified Eagle's medium (DMEM, JRH Biosciences, Lenexa, Kans.) supplemented with 10% heat-inactivated FBS (fetal bovine serum), 2 mM L-glutamine, and nonessential amino acids (JRH). The cells were transfected with an in vitro transcribed HCV replicon RNA identical to replicon 1377neo/NS3-3′/wt as described by Lohmann et al. (1999). Stable cell clones were selected and maintained in the presence of 250 μg/mL G418 (Invitrogen, Carlsbad, Calif.). […] The HCV NS3 protease variant replicons were constructed in the background of the mADE wild-type replicon as described previously [Chao Lin et al., “In Vitro Resistance Studies of Hepatitis C Virus Serine Protease Inhibitors, VX-950 and BILN 2061: Structural Analysis Indicates Different Resistance Mechanisms,” Journal of Biological Chemistry, 279(17); pp. 17508-17514 (2004)]. The replicon cells were propagated in DMEM supplemented with 10% FBS, 2 mM L-glutamine, nonessential amino acids, and 250 μg/mL G418. The cells were split twice per week in fresh media upon reaching confluence. There are approximately 200-300 copies of HCV RNA per 24-2 replicon cell.
(§2) HCV replicon RNA from cells was measured using the Quantigene Discover XL kit (Panomics Inc., Fremont Calif.) as per the manufacturer's instructions. Briefly, compound-treated replicon cells were lysed and immobilized on to capture plates using HCV specific oligonucleotides (designed based on the 5′ UTR region of HCV 1b genome sequence AJ238799 in the GenBank database) over night and the relative amounts of captured RNA was measured using oligonucleotide probe sets as per the manufacturer's instructions.
(§3) On the day prior to the assay, 10,000 replicon cells were plated per well of a 96-well plate and allowed to attach and grow overnight in DMEM (Invitrogen, Carlsbad, Calif.) supplemented with 10% heat-inactivated FBS (JRH Biosciences, Lenexa, Kans.), 2 mM L-glutamine (Invitrogen), nonessential amino acids (Invitrogen) and 250 μg/ml G418 (Invitrogen). Next day, the medium was removed and antiviral agents that were serially diluted in DMEM containing 2% FBS and 0.5% DMSO (Sigma Chemical Co., St. Louis, Mo.) without G418, was added. The replicon cells were incubated with the antiviral agents for 48 h. HCV replicon RNA from cells was measured using the Quantigene Discover XL kit (Panomics Inc., Fremont Calif.) as per the manufacturer's instructions. Briefly, compound-treated replicon cells were lysed and immobilized onto capture plates using HCV specific oligonucleotides overnight and the relative amounts of captured RNA was measured using oligonucleotide probe sets as per the manufacturer's instructions. Unless indicated otherwise, each data point represents the average of three replicates. The IC50 is the concentration of the compound at which the HCV replicon RNA level in cells is reduced by 50% as compared to the untreated replicon cell controls. To monitor the effect of compounds on cell proliferation or cell viability, replicon cells were treated with serially diluted compounds for 48 h, after which cell viability was determined using a CellTiter Glo assay (Promega, Madison, Wis.). Each CC50 is derived from at least two replicates and is the concentration of the compound at which the number of viable cells is reduced by 50% as compared to untreated cell controls. The IC50 and CC50 was determined using 4-parameter curve fitting in the SoftMax Pro program (Molecular Devices, Sunnyvale, Calif.).
(§4) The sensitivity of NS3 protease variants to ribavirin and interferon was assessed in a 2-Day HCV Replicon IC50 Assay.

[3] = tested on: HCV NS3 protease variant replicon T54A; assay: microbe, parasite or virus in culture; assay type: cell-based; details: for Fold Change: T54A, ratio of mutant IC50 to Wild type IC50 for the same inhibitor; for IC50: Hepatitis C virus
Protocol: as §1, §2, §3, §4

[4] = tested on: HCV NS3 protease variant replicon R155M; assay: microbe, parasite or virus in culture; assay type: cell-based; details: for Fold Change: R155M, ratio of mutant IC50 to Wild type IC50 for the same inhibitor
Protocol: as §1, §2, §3, §4

[5] = tested on: HCV NS3 protease variant replicon V36A-R155T; assay: microbe, parasite or virus in culture; assay type: cell-based; details: for Fold Change: V36A-R155T, ratio of mutant IC50 to Wild type IC50 for the same inhibitor
Protocol: as §1, §2, §3, §4

[6] = tested on: HCV NS3 protease variant replicon V36A; assay: microbe, parasite or virus in culture; assay type: cell-based; details: for Fold Change: V36A, ratio of mutant IC50 to Wild type IC50 for the same inhibitor; for IC50: Hepatitis C virus
Protocol: as §1, §2, §3, §4

[7] = tested on: HCV NS3 protease variant replicon V36A-R155K; assay: microbe, parasite or virus in culture; assay type: cell-based; details: for Fold Change: V36A-R155K, ratio of mutant IC50 to Wild type IC50 for the same inhibitor
Protocol: as §1, §2, §3, §4

[8] = tested on: HCV NS3 protease variant replicon V36M; assay: microbe, parasite or virus in culture; assay type: cell-based; details: for Fold Change: V36M, ratio of mutant IC50 to Wild type IC50 for the same inhibitor; for IC50: Hepatitis C virus
Protocol: as §1, §2, §3, §4

[9] = tested on: HCV NS3 protease variant replicon R155K; assay: microbe, parasite or virus in culture; assay type: cell-based; details: for Fold Change: R155K, ratio of mutant IC50 to Wild type IC50 for the same inhibitor; for IC50: Hepatitis C virus
Protocol: as §1, §2, §3, §4

[10] = tested on: HCV NS3 protease variant replicon V36M-R155T; assay: microbe, parasite or virus in culture; assay type: cell-based; details: for Fold Change: V36M-R155T, ratio of mutant IC50 to Wild type IC50 for the same inhibitor
Protocol: as §1, §2, §3, §4

[11] = tested on: HCV NS3 protease variant replicon V36M+R155K; assay: microbe, parasite or virus in culture; assay type: cell-based; details: for Fold Change: V36M-R155K, ratio of mutant IC50 to Wild type IC50 for the same inhibitor
Protocol: as §1, §2, §3, §4

[12] = tested on: HCV replicon Wild Type (mADE); assay: 2-Day HCV Replicon IC50 Assay, wild type replicon; assay type: cell-based; details: for Fold Change: ratio of IC50 to Wild type IC50 for the same inhibitor; for IC50: Hepatitis C virus
Protocol: as §1, §2, §3, §4

[13] = tested on: HCV NS3 protease variant replicon A156V; details: A156V replicon versus wild-type (Lin et al., 2005); cited from earlier work
[14] = tested on: HCV NS3 protease variant replicon A156V; assay: 2-Day HCV Replicon IC50 Assay, A156V; assay type: cell-based; details: for Fold Change: A156V, ratio of mutant IC50 to Wild type IC50 for the same inhibitor; for IC50: Hepatitis C virus, read-out: Avg. IC50 ± STDEV
Protocol: as §1, §2, §3, §4

[15] = tested on: HCV NS3 protease variant replicon A156T; assay: 2-Day HCV Replicon IC50 Assay, A156T; assay type: cell-based; details: for Fold Change: A156T, ratio of mutant IC50 to Wild type IC50 for the same inhibitor; for IC50: Hepatitis C virus, read-out: Avg. IC50 ± STDEV
Protocol: as §1, §2, §3, §4

[16] = tested on: HCV replicon cells (wild-type clone 24-2, Huh-7); assay: 2-day Replicon assay with bDNA quantitation, checkerboard combination (Bliss independence / MacSynergy); assay type: cell-based; details: Hepatitis C virus, Huh-7, 48 h, polymerase inhibitor in the checkerboard experiment with VX-950, read-out: Polymerase Inhibitor IC50
Protocol: Huh-7 cells were propagated in Dulbecco's modified Eagle's medium (DMEM, JRH Biosciences, Lenexa, Kans.) supplemented with 10% heat-inactivated FBS (fetal bovine serum), 2 mM L-glutamine, and nonessential amino acids (JRH). The cells were transfected with an in vitro transcribed HCV replicon RNA identical to replicon 1377neo/NS3-3′/wt as described by Lohmann et al. (1999). Stable cell clones were selected and maintained in the presence of 250 μg/mL G418 (Invitrogen, Carlsbad, Calif.). One of the clones, 24-2, was used as the wild-type in the subsequent HCV replicon assays for combination studies. The HCV NS3 protease variant replicons were constructed in the background of the mADE wild-type replicon as described previously [Chao Lin et al., “In Vitro Resistance Studies of Hepatitis C Virus Serine Protease Inhibitors, VX-950 and BILN 2061: Structural Analysis Indicates Different Resistance Mechanisms,” Journal of Biological Chemistry, 279(17); pp. 17508-17514 (2004)]. The replicon cells were propagated in DMEM supplemented with 10% FBS, 2 mM L-glutamine, nonessential amino acids, and 250 μg/mL G418. The cells were split twice per week in fresh media upon reaching confluence. There are approximately 200-300 copies of HCV RNA per 24-2 replicon cell.
as §2, §3
The effects of drug-drug combinations were evaluated using the Bliss independence model [W. R. Greco et al., “The search for synergy: a critical review from a response surface perspective,” Pharmacol. Rev., 47, pp. 331-385 (1995)]. The experimental data were analyzed by using MacSynergy, a three-dimensional analytical method developed by Prichard and Shipman [M. N. Prichard and C. […]

[17] = Table 8, Wild Type replicon, read-out: Avg. IC50 ± STDEV
[18] = Hepatitis C virus, read-out: Avg. IC50

Row | Compound | sensitivity of replicon [1] | Fold Change [2] | Fold Change [3] | Fold Change [4] | Fold Change [5] | Fold Change [6] | Fold Change [8] | Fold Change [9] | Fold Change [11] | Fold Change ([12]; Wild Type replicon) | Fold Change [14] | IC50 [14] | IC50 ([3]; read-out: Avg. IC50 ± STDEV) | IC50 ([6]; read-out: Avg. IC50 ± STDEV) | IC50 ([8]; read-out: Avg. IC50 ± STDEV) | IC50 ([9]; read-out: Avg. IC50 ± STDEV) | Fold Change [15] | IC50 [15] | IC50 [16] | IC50 [12, 17] | further results
1 | IFN-α | comparable to the wild-type | 0.4 | 0.3 | 0.4 | 0.3 | 0.9 | 1.0 | 1.3 | 0.9 | 1.0 | – | – | – | – | – | – | – | – | – | – | Avg. IC50 ([2]; IFN-α, R155T replicon): 4.8 ± 3.3 units/ml; Avg. IC50 ([3]; IFN-α, T54A replicon): 3.9 ± 0.5 units/ml; Avg. IC50 ([4]; IFN-α, R155M replicon): 4.9 ± 1.0 units/ml; Avg. IC50 ([5]; IFN-α, V36A-R155T replicon): 3.9 ± 2.1 units/ml; Avg. IC50 ([6]; IFN-α, V36A replicon): 10.3 ± 6.0 units/ml; Avg. IC50 ([7]; IFN-α, V36A-R155K replicon): 6.8 ± 0.5 units/ml; Fold Change [7]: 0.6; Avg. IC50 ([8]; IFN-α, V36M replicon): 11.3 ± 5.9 units/ml; Avg. IC50 ([9]; IFN-α, R155K replicon): 15.2 ± 12.3 units/ml; Avg. IC50 ([10]; IFN-α, V36M-R155T replicon): 3.1 ± 0.2 units/ml; Fold Change [10]: 0.3; Avg. IC50 ([11]; IFN-α, V36M-R155K replicon): 10.1 ± 5.9 units/ml; Avg. IC50 ([12]; IFN-α, Wild Type (mADE) replicon): 11.6 ± 1.1 units/ml; sensitivity of replicon [13]: comparable to the wild-type
2 | CCN(CC)C1CCN(C(=O)Cn2c(-c3ccc(Cl)cc3)c(C3CCCCC3)c3ccc(C(=O)O)cc32)CC1 [Formula III] | – | – | 1.1 | – | – | 1.2 | 0.7 | 1.2 | 1.3 | 1.0 | 0.9 | 297 ± 66 nM | 337 ± 45 nM | 369 ± 66 nM | 227 ± 64 nM | 390 ± 65 nM | 1.0 | 306 ± 10 nM | 700 nM | 313 ± 32 nM | –
3 | NC(=O)c1ncn([C@@H]2O[C@H](CO)[C@@H](O)[C@H]2O)n1 [Ribavirin, 1-beta-D-ribofuranosyl-1H-1,2,4-triazole-3-carboxamide, reference compound] | comparable to the wild-type | 0.6 | 0.4 | 0.7 | 0.7 | 0.7 | 0.6 | 0.6 | 0.7 | 1.0 | – | – | – | – | – | – | – | – | – | – | IC50 [2, 18]: 32.4 ± 17.7 µM; IC50 ([3]; read-out: Avg. IC50): 21700 ± 11100 nM; IC50 [4, 18]: 38.9 ± 4.7 µM; IC50 [5, 18]: 41.7 ± 21.6 µM; IC50 ([6]; read-out: Avg. IC50): 43100 ± 21300 nM; IC50 [7, 18]: 35.8 ± 2.2 µM; Fold Change [7]: 0.6; IC50 ([8]; read-out: Avg. IC50): 32900 ± 17800 nM; IC50 ([9]; read-out: Avg. IC50): 37200 ± 17000 nM; IC50 [10, 18]: 36.4 ± 1.3 µM; Fold Change [10]: 0.6; IC50 [11, 18]: 40.6 ± 6.1 µM; IC50 ([12]; Ribavirin, Wild Type (mADE) replicon, read-out: Avg. IC50): 57800 ± 17600 nM; sensitivity of replicon [13]: comparable to the wild-type
4 | C[C@@]1(O)[C@H](O)[C@@H](CO)O[C@H]1n1ccc(N)nc1=O [Formula I] | – | – | 1.5 | – | – | 1.6 | 1.2 | 1.8 | 2.0 | 1.0 | 1.0 | 1310 ± 216 nM | 1980 ± 388 nM | 2150 ± 874 nM | 1590 ± 361 nM | 2370 ± 678 nM | 0.9 | 1270 ± 185 nM | 7210 nM | 1340 ± 473 nM | –
5 | O=c1c(C2=NS(=O)(=O)c3ccccc3N2)c(O)c2ccccc2n1NC1CCC1 [Formula II] | – | – | 1.6 | – | – | 1.6 | 1.0 | 1.3 | 1.7 | 1.0 | 0.8 | 264 ± 45 nM | 564 ± 111 nM | 571 ± 93 nM | 360 ± 164 nM | 450 ± 23 nM | 0.9 | 326 ± 3 nM | 1040 nM | 347 ± 108 nM | –
